# Tests used:
# SIK1 = target: T1, SIK1 (Homo sapiens, UniProt P57059); test: Protein kinase assay ([γ-32P] ATP, phosphocellulose paper) against SIK1; assay type: biochemical; settings: read-out: Enzyme Inhibition IC50 SIK1
# T1 construct: made in house
# Protocol: Bone marrow-derived DCs were differentiated from C57BL/6 bone marrow in the presence of GM-CSF-conditioned media. CD11c^+ CX3CR1^hi myeloid cells and CD11c^+ CX3CR1^− DCs were isolated from the small intestine lamina propria of Cx3cr1^eGFP/+ mice (12). Detection of cell-surface Thy1.1 expression on BMDCs from 10BiT reporter mice was conducted as described previously (24). Cell viability was estimated by change in total cellular ATP levels using CellTiterGlo assays (Promega). Preparation of recombinant SIK proteins and IC50 measurements were conducted as described previously (21). […] The concentrations of TNF-α, IL-6, IL-10, IL-12p40, IL-1β and RANTES in culture supernatants were detected using a FlexSet Cytometric bead array (BD Biosciences). Alternatively, IL-10 secretion was quantified using ELISA (BD Biosciences) or AlphaLISA (PerkinElmer) assays. […]
# In another set of experiments, the activities of the SIK inhibitors described herein against SIK were determined according to the methods reported in Hastie et al., Nature Protocols, 2006, 1, 968-971. […]
# The specific activity of the [γ-^32P] […] To measure the concentration of ATP, a sample of such a stock solution was diluted to 20 μM, and the absorbance of the diluted sample was measured at 259 nm. The absorbance of a 20-μM stock solution of ATP at 259 nm was about 0.31. […] ATP to produce a radioactivity of 1×10^5 to 1×10^6 c.p.m. per nmol. […]
# human MΦs or DCs = test: Cytokine production by human macrophages and dendritic cells from PBMCs (ELISA); assay type: cell-based; settings: 0.5 μM, 24 hr, zymosan 18 hr
# Protocol: Heparinized blood from healthy donors was obtained from Research Blood Components. Peripheral blood mononuclear cells (PBMCs) were obtained by density centrifugation of blood diluted 50% (vol/vol) with PBS over Ficoll-Paque (Pharmacia Biotech). PBMCs were further purified by plastic adherence for 1 hr and washed 5× with PBS. Monocytes within the PBMC pool were differentiated towards DCs in X-VIVO media (Lonza) supplemented with IL-4 (50 ng/mL, R&D Systems) and GM-CSF (50 ng/mL, R&D Systems) or macrophages in X-VIVO media supplemented with GM-CSF (5 ng/mL) and IFN-γ (5 ng/mL; PeproTech) for 7 days as described previously (Smeekens S P, et al. (2013) Functional genomics identifies type I interferon pathway as central for host defense against Candida albicans. Nature communications 4:1342). After third day, half of the culture medium was replaced by fresh DC/macrophages differentiation medium.
# After stimulation of cells with microbial ligands, the culture medium was removed, clarified by centrifugation for 10 min at 14,000×g, and the concentration of TNF-α, IL-6, IL-10, IL-12p40, IL-1β and RANTES were measured using FlexSet Cytokine Bead Array (BD Biosciences) according to the manufacturer's instructions. Where indicated, ELISAs were used to detect IL-10 and IL-12p70 (BD Biosciences) according to the manufacturer's instructions. […]
# T1 sequence (P57059 whole entry): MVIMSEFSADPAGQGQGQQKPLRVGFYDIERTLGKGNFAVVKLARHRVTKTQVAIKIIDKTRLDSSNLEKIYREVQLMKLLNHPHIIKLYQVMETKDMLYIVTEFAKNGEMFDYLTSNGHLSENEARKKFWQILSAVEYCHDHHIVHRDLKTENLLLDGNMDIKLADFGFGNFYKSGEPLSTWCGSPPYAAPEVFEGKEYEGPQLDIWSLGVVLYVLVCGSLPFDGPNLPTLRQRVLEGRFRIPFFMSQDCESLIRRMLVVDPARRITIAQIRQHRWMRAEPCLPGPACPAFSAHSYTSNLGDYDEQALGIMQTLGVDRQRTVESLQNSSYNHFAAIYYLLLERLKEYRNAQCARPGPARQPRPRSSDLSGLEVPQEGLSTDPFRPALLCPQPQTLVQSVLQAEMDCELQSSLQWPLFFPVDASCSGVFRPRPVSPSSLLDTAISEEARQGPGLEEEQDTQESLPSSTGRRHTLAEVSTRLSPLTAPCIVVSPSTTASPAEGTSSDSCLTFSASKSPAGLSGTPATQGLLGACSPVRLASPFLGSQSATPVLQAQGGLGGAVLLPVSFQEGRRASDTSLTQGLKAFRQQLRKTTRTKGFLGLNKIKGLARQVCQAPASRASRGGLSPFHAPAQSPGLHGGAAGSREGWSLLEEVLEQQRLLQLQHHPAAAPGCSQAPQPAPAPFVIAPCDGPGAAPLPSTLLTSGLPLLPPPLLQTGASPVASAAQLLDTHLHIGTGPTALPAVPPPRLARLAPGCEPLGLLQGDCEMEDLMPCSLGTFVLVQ
SMILES,IC50 (SIK1),IL-10 production by human MΦs or DCs (human MΦs or DCs),IL-12p70 secretion by human MΦs or DCs (human MΦs or DCs)
"CCN1CCN(c2ccc(Nc3cc(-n4ccnc4Nc4c(C)cccc4C)ncn3)cc2)CC1 [II-1, 6-(2-((2,6-dimethylphenyl)amino)-1H-imidazol-1-yl)-N-(4-(4-ethylpiperazin-1-yl)phenyl)pyrimidin-4-amine]",36.2 nM,,
COc1ccc(N(C(=O)Nc2c(C)cccc2C)c2cc(Nc3ccc(N4CCN(C)CC4)cc3)ncn2)c(OC)c1 [HG-9-91-01],,enhanced IL-10 production,dramatically reducing IL-12p70 secretion

# — patent US10265321B2, “Uses of salt-inducible kinase (SIK) inhibitors” (Dana-Farber Cancer Institute, Inc., priority 2014, dated 2019)
